From PubChem BioAssay AID179 (DTP/NCI, 2004)
Activity calls are given as the source filed them.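 Rule for the calls: active = compounds giving half or more protection of infected cells from virus-caused growth loss, again on retest; inactive = the rest.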 Where a SMILES comes first, the peptide text is derived from it. [ ]: non-standard residue; d: D form. The star is where a group is joined. Phe(4-NO2) = N[CH](Cc1ccc([N+](=O)[O-])cc1)C(=O)O; Cbz = O=C(OCc1ccccc1)*

Test system: CEM cells HIV-1 protection, formazan growth assay
Assay: NCI AIDS Antiviral Assay
Conditions: for IC50: measured here: growth of uninfected CEM cells
In short: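 Protection of CEM cells against HIV-1 was scored from cell growth (soluble formazan) across five concentrations, with parallel uninfected cells. Lack of protection may reflect toxicity.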

| SMILES | EC50 | IC50 | outcome |
| --- | --- | --- | --- |
| Nc1ccc(C(=O)Nc2ccc(/C=C/c3ccc(NC(=O)c4ccc(N)cc4S(=O)(=O)O)cc3S(=O)(=O)O)c(S(=O)(=O)O)c2)c(S(=O)(=O)O)c1 | 22.4 µM | 89.1 µM |  |
| C=C(C)/C=C/C(O)[C@](C)(O)[C@H]1[C@H](O)C[C@@]2(C)[C@@H]3CCc4c(cc(OC5OC(CO)C(O)C(O)C5O)c(O)c4C)C3(C)C(=O)C[C@]12C (stereo partly specified) | > 200 µM | > 200 µM |  |
| CCOC(=O)C1=C(Nc2cccc3ccccc23)OC/C1=N\NC(=O)c1ccccc1O | > 60.3 µM | 17.4 µM |  |
| O=C(N/C(=C\c1cccc([N+](=O)[O-])c1)c1nc2[nH]c(=S)[nH]c(=O)c2[nH]1)c1ccccc1 |  |  | inactive |
| O=S1Nc2cccc(C(F)(F)F)c2S1 (stereo unspecified) | > 57.5 µM | > 57.5 µM |  |
| Cc1ccnc2c1ccc1nc3ccccc3n12 | > 200 µM | > 200 µM |  |
| O=C(Nc1cc(Cl)ccc1Cl)C(=O)C(c1cnc2ccccc2n1)[N+](=O)[O-] (stereo unspecified) | > 89.1 µM | 38.9 µM |  |
| CCC1CN(C(=O)c2ccccc2)C(Cc2c[nH]c3ccccc23)C(=O)C1CC(=O)OC (stereo unspecified) | > 200 µM | 79.4 µM |  |
| Cc1cccc(NC(=S)Nc2cccc(Cl)c2)n1 | > 200 µM | > 200 µM |  |
| O=C(CN1CCN(c2cccc(Cl)c2)CC1)N1CCc2c([nH]c3ccccc23)C1c1cccnc1 (stereo unspecified) | > 2.14 µM | > 2.14 µM |  |
| Cc1cccc(C)c1NC(=S)/N=C\c1c(O)[nH]c(=O)[nH]c1=O | > 200 µM | > 200 µM |  |
| CC(C)(C)c1cc(C(C)(C)C)c(P=C(Cl)Cl)c(C(C)(C)C)c1 (stereo unspecified) | > 100 µM | > 100 µM |  |
| C[Si](C)(C)C#C[I+]c1ccccc1 |  |  | inactive |
| COC(=O)C1=C(N)C2=C(N)Oc3ccccc3C2CC1=C(C#N)C#N (stereo unspecified) | > 200 µM | 47.9 µM |  |
| Cc1oc(N)c(S(=O)(=O)c2cc3ccccc3n(O)c2=N)c1C | > 200 µM | 95.5 µM |  |
| CC[C@@H]1OC2(C)CC(S(=O)(=O)c3ccccc3O)CC1O2 (stereo partly specified) | > 794 µM | 741 µM |  |
| O=C1c2ccccc2C(=O)N1n1c(Cc2ccccc2)n[nH]c1=O | > 200 µM | > 200 µM |  |
| Cn1c(=O)c2c(c3cc(O)ccc31)OC(C(C)(C)O)C2 (stereo unspecified) | > 617 µM | 112 µM |  |
| CO[C@H]1/C=C/O[C@@]2(C)Oc3c(C)c(O)c4c(O)c(c(/C=N/N5CCCN(Cc6ccccc6)CC5)c(O)c4c3C2=O)NC(=O)/C(C)=C\C=C\[C@H](C)[C@H](O)C(C)[C@@H](O)C(C)[C@H](OC(C)=O)[C@@H]1C (stereo partly specified) | > 200 µM | 8.32 µM |  |
| O=C(CS)NCCNC(=O)CS | > 25.1 µM | > 25.1 µM |  |
| Cc1ccc(S[C@@](C=O)(NC(=O)OCc2ccccc2)C(F)(F)F)cc1 |  |  | inactive |
| CCOC(=O)CCC(NC(=O)OCc1ccccc1)C(=O)NC(CCC(=O)OCC)C(=O)NC(Cc1ccc([N+](=O)[O-])cc1)C(=O)NC(CCC(=O)OCC)C(=O)NC(CCC(=O)OCC)C(=O)OCC (stereo unspecified) (Cbz-E(OEt)E(OEt)[Phe(4-NO2)]E(OEt)E(OEt)-OEt; configuration not given here) | > 200 µM | > 200 µM |  |
| CC(Oc1ccc2c(-c3ccccc3)cc(=O)oc2c1)C(=O)O (stereo unspecified) |  |  | inactive |
| CC(=O)O[C@@]12[C@@H]3O[C@@]4(O)C[C@]5(C)[C@H]6C[C@@](C(C)C)(O[C@H]5c5ccoc5)O[C@H]1[C@]6(C4)O[C@]2(O)C(C)=CC3(C)C | > 100 µM | 52.5 µM |  |
| CCOC(=O)Cc1cc(=O)oc2c3c(cc(OC(C)C)c12)O[C@H](C)[C@@H](C)C3=O | > 200 µM | 195 µM |  |
| CC(C)(C)P1(=O)OCC(c2ccccc2)CO1 (stereo unspecified) | > 200 µM | 151 µM |  |
| Cc1cc(N(CCC#N)CCC#N)ccc1N=Nc1cccc(C(=O)O)c1 | > 72.4 µM | 57.5 µM |  |
| CCOC1C(Br)Cn2c(=O)c3cc4ccccc4cc3c(=O)n2C1C (stereo unspecified) | > 17.8 µM | > 17.8 µM |  |
| Nc1ccc(S(=O)(=O)Nc2nc3ccccc3nc2N2CCCCC2)cc1 | > 200 µM | 72.4 µM |  |
| Cc1cc(S(=O)(=O)NC2=NCCCN2)c(S)cc1Cl | > 257 µM | 64.6 µM |  |
